The record followed here is US20070248646A1, “Use of azurocidin inhibitors in prevention and treatment of ocular vascular leakage” (priority 2006, published 2007).

Test [1] concerns VEGF-induced blood retinal barrier breakdown. The experiment in a line: VEGF-induced blood retinal barrier breakdown (Evans Blue). It is filed as in vivo, Brown Norway rats. The method, then: This study employed Brown Norway rats, AZ (1 μg, 10 μg, 20 μg), PBS, aprotinin, VEGF164, and polyclonal anti-AZ antibody (1 μg). Briefly, Brown Norway rats received intravitreal injections of AZ (1 μg, 10 μg and 20 μg) in one eye and PBS in the contralateral eye. BRB breakdown was quantified using the Evans Blue (EB) technique at 1 hour, 3 hours, and 24 hours after intravitreal injection of AZ or PBS. To assess whether AZ induced retinal leukostasis, firm leukocyte adhesion was quantified at 3 hours and 24 hours post AZ injection (10 μg) using the ex vivo conconavalin leukostasis assay. To block AZ, rats were treated with a single intravenous injection of aprotinin (30,000KIU), prior to the intravitreal injections. To investigate whether AZ was involved in VEGF-induced BRB breakdown, rats received intravitreal injections of 50 ng recombinant mouse VEGF164 in one eye and PBS in the other eye and were treated intravenously with aprotinin (50,000KIU every eight hours) or polyclonal anti-AZ antibody (1 μg). BRB breakdown and retinal leukostasis were quantified 24 hours after VEGF injection.
Rats received intravitreous injections of 5 μl of sterile phosphate-buffered saline (PBS) containing 50 ng VEGF164 (R&D Systems, Minneapolis, Minn.) in one eye and 5 μl of sterile phosphate-buffered saline (PBS) in the contralateral eye. The retinas were analyzed for leakage 24 hours after VEGF injection.
In a second group, the rats were additionally treated intravenously with aprotinin (Trasylol®, Bayer Pharmaceuticals). 50,000KIU of aprotinin (5 ml of Trasylol®) was administered intravenously through the tail vein 1 hour before, as well as 8 hours and 16 hours after, the intravitreal injection of VEGF. The retinas were analyzed 24 hours after VEGF administration.
In a third group, rats were treated with intravitreous injections of 1 μg of goat anti-human azurocidin polyclonal antibody (5 μl of a 200 μg/ml antibody solution, Santa Cruz biotechnology) or control goat isotype IgG (R&D system) in the VEGF injected eye 6 hours after VEGF administration.
Retinal vascular permeability was quantified as previously described (Qaum et al. (2002) supra, Xu et al. (2001) INVEST. OPHTHALMOL. VIS. SCI. 42; 789-94). After the animals were deeply anesthetized, Evans blue dye (Sigma) dissolved in normal saline (30 mg/ml) was injected through the tail vein over 10 seconds at a dosage of 45 mg/kg. Blood samples were obtained from the left ventricle, just before perfusion at 2 hours, to obtain the time-average Evans blue dye plasma concentration. These blood samples were centrifuged at 12,000 rpm for 15 minutes and diluted to 1/10,000th of their initial concentration in formamide (Sigma). The background-subtracted absorbance was determined by measuring each sample at 620 nm (the absorbance maximum for Evans blue dye in formamide) and 740 nm (the absorbance minimum) with a spectrophotometer. The concentration of dye in the plasma was calculated from a standard curve of Evans blue dye in formamide. After the dye had circulated for 2 hours, the chest cavity was opened, and the rats were perfused through the left ventricle with 1% paraformaldehyde in citrate buffer (0.05 M, pH 3.5) at a physiological pressure of 120 mm Hg. The retinas were then carefully dissected under an operating microscope. After measurement of the retinal weight, Evans blue dye was extracted by incubating each retina in 0.180 ml of formamide for 18 hours at 70° C. The extract was ultracentrifuged at a speed of 14,000 rpm for 60 minutes at 25° C. Sixty microliters of the supernatant was used for spectrophotometric measurement at 620 nm and 740 nm. The background-subtracted absorbance was determined by measuring each sample at 620 nm (the absorbance maximum for Evans blue dye in formamide) and 740 nm (the absorbance minimum). The concentration of dye in the extracts was calculated from a standard curve of Evans blue dye in formamide. […]

The subject of test [2] is intravitreal leukocyte accumulation in EIU. The experiment in a line: Intravitreal leukocyte accumulation in Endotoxin-Induced-Uveitis. Conditions: 24 hours post LPS-injection; aprotinin 50,000KIU at 0, 8, 16 hours; EIU 343.6±11.7. Format: in vivo, Lewis rats. As to the method: EIU was induced in Lewis rats via footpad injection of 100 μl (1 mg/ml) lipopolysaccharide (LPS). Control animals received an equal volume of saline. The experiments were conducted 24 hours after LPS injection. At this time point, several experimental parameters were assessed.
To block AZ, animals received 5 ml of aprotinin (Trasylol®; 50,000KIU). The first injection was given at the same time as the footpad injection, followed by a second injection 8 hours later and a third injection 16 hours later. The control animals received and equal amounts of vehicle control. LPS was purchased in lyophilized form from Sigma (#L6511).
To assess leukocyte extravasations into the vitreal cavity during EIU, histological slides of the whole eyes of treated rats were generated and the number of leukocytes in the vitreous cavity of these sections was counted. To do so, whole eyes were placed in 4% paraformaldehyde for fixation. Gradual infiltration of graded alcohols was followed by xylene and finally by liquid paraffin. Paraffin submerged eyes were then cooled to harden. Six-micron sections were cut on a Leica microtome and placed on slides. Sections were stained with hematoxylin and eosin and coverslipped.

As for aprotinin, the “BRB breakdown as percentage of the value in control eyes” value in test [1] (24 hours after intravitreal 50 ng VEGF) was 110%±21. Further, the “Evans Blue retinal leakage in VEGF-injected eye” value in test [1] (24 hours after intravitreal 50 ng VEGF, PBS eye 9.6±1.4 (VEGF alone), 5.4±1.4 (with aprotinin)) is 6.2±1.5 μl plasma/g retina/h. For the same substance, in test [1] (24 hours after intravitreal 50 ng VEGF, aprotinin i.v. 50,000KIU every eight hours, antibody 1 μg intravitreal 6 hours after VEGF), the “fold increase in retinal vascular leakage compared to the PBS injected eye” value worked out at 1.1±0.21 fold. Also, the “suppression of VEGF-induced blood retinal barrier breakdown” value in test [1] (24 hours after intravitreal 50 ng VEGF, aprotinin i.v., antibody intravitreal 6 hours after VEGF) worked out at 95%. Moreover, in test [1] (PBS-injected eye, i.v. aprotinin), the “basal levels of retinal Evans Blue leakage” value was “did not reduce the basal levels of retinal Evans Blue leakage”. Further, the “number of leukocytes found intravitreally” value in test [2] turned out to be 119.2±8.4.
